Reference: patent publication US20230105108A1, “COMPOUNDS FOR THE TREATMENT OF BACTERIAL INFECTIONS AND POTENTIATION OF ANTIBIOTICS” (GEORGIA STATE UNIVERSITY RESEARCH FOUNDATION, INC., priority 2019, published 2023)
Where a name gives a salt, the structure may show the parent alone. Read-outs that look alike come from different tables or passages of the source.

What was measured:
E. coli (ATCC 25922) = experiment: MIC determination, sensitization fold and FIC index on E. coli; type: cell-based; details: for MIC: Escherichia coli; for MIC of AB with MD-124: MD-124 concentration 5 μg/ml
Procedure, shortened: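 E. coli in cation-adjusted Mueller Hinton II, 5×10^5 CFU/ml, 24 h at 37 °C shaking; rifampicin two-fold serial dilutions with or without fixed sensitizer (10 μM).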

E. coli [1] = experiment: Lysozyme assay (outer membrane disruption); type: cell-based; details: 50 μg/ml lysozyme, 50 μg/ml sensitizer, 10 min
Experimental: Lysozyme assay to evaluate the disruption of Gram-negative bacteria out membrane by bacterial sensitizers. Lysozyme assay was performed based on literature reported method. E. coli was cultured in Mueller Hinton II cation-adjusted broth for overnight, centrifuged at 3000 g for 10 min, washed with HEPES buffer (pH=7.2) and then centrifuged again to obtain bacteria pallet. The pallet was then gently resuspended in HEPES buffer with 5 mM NaCN to obtain an E. coli suspension with OD600 between 0.8˜1.0. On a 96-well plate, each well was supplied with 100 μl lysozyme solution (100 μg/ml) containing 50 or 100 μg/ml bacterial sensitizers in HEPES buffer. To each well was added 100 μl E. coli suspension. The final concentration of lysozyme was 50 μg/ml. The plate was incubated at room temperature for 10 min and the OD600 was recorded. E. coli was also incubated with bacterial sensitizers in the absence of lysozyme to test if bacterial sensitizers would directly induce bacterial lysis. E. coli that was incubated with lysozyme alone or E. coli without any treatment were also used as negative control.

[2] = system: E. coli (lipid A part of LPS); experiment: Dansyl-PMBN displacement assay; type: binding; details: E. coli with 10 μM Dansyl-PMBN; sensitizer 0 to 200 μM
Experimental: Panel (C) depicts a Dansyl-PMBN displacement assay. […] The fluorescent intensity of 10 μM Dansyl-PMBN in HEPES buffer was recorded as baseline F0. Fluorescent intensity/%=(F1−Fx)/(F1−F0). […] All results are triplicates.
Dansyl-PMBN displacement assay. Dansyl-PMBN was synthesized according to literature procedure. Dansyl-PMBN was dissolved in H2O to make 500 μM stock. Bacterial sensitizers were dissolved in ethanol to make 10 mM stock solutions. […] The E. coli stock was centrifuged at 3000 g for 10 min, washed with HEPES buffer (pH=7.2) and then centrifuged again to obtain bacteria pallet. The pallet was then gently resuspended in HEPES buffer to obtain a E. coli suspension with OD600 about 0.3. The experiment was performed on 96-well plates. Each well was supplied with 100 μl coli suspension with 10 μM Dansyl-PMBN, then to each well, different concentrations of bacterial sensitizers were added to achieve a final concentration ranging from 0 to 200 μM.
Mg^2+ can bridge between adjacent lipid A and enhance the membrane integrity. […] This phenomenon was also observed on MD-100. The culture medium for E. coli is Muller Hinton Broth (Cation adjusted), which already has at least 0.5 mM Mg^2+, so the “zero concentration point of Mg^2+” in FIG. 4 represents the amount of exogenous Mg^2+, not the total Mg^2+ in the culture medium. […] A fluorescent conjugate of a polymyxin-B derivative (Dansyl-PMBN, Scheme 3), which would show increased fluorescent intensity after binding to the lipid A part of LPS, was used to further probe this issue. In the presence of another component that can also binding to lipid A, Dansyl-PMBN would be replaced, leading to decreased fluorescent intensity.

[3] = system: H9c2 (ATCC CRL-1446) cells; experiment: Cytotoxicity in H9c2 cells (CCK-8); type: cell-based; details: H9c2 cell line
Procedure, shortened: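 H9c2 cells were grown in DMEM with 10% FBS, seeded the day before, and exposed to a range of di-amidine concentrations for 24 h at 37 °C, 5% CO2. Viability was read by CCK-8 after 3 h at 37 °C as absorbance at 450 nm.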

[4] = system: A. baumannii (ATCC 17978); experiment: MIC, sensitization fold and FIC index on A. baumannii; type: cell-based; details: for Sensitization fold with 5 μg/ml MD-124: A. baumannii towards the antibiotic
[5] = system: NDM-1 expressing E. coli strain; experiment: microbe, parasite or virus in culture; type: cell-based; details: for Sensitization fold with 5 μg/ml MD-124: NDM-1 expressing E. coli towards the antibiotic
B. subtilis = experiment: MIC determination and sensitization fold on B. subtilis; type: cell-based; details: for sensitization fold with 5.5 μg/ml DB2560: B. subtilis towards the antibiotic; for Sensitization fold: erythromycin
K. pneumoniae (43816) = experiment: MIC, sensitization fold and FIC index on K. pneumoniae; type: cell-based; details: for Sensitization fold with 5 μg/ml MD-124: K. pneumoniae towards the antibiotic
E. coli [6] = experiment: Ex vivo skin burn infection model, wild-type E. coli; details: human skin burn, hypromellose gel, 24 hours; 4‰ (w/w) novobiocin, 1.5‰ MD-124
Experimental: To achieve topical application, compounds were formulated as hypromellose gel. […] After that, skin was loaded with hypromellose gel with different antibiotics and cultured at 37° C. for 24 hours. After 24 hours incubation, the skin sample was homogenized and the supernatants were serially diluted and plated on agar plates, from which bacterial counts on the skin was calculated. […] 1‰ polymyxin B hypromellose gel was used as positive control.

MRSA and E. coli = experiment: Composition of mixed MRSA and E. coli under antibiotic pressure; type: cell-based; details: trovafloxacin 16 ng/ml
Experimental: FIG. 11 contains graphs showing that MD-108 can change the composition between MRSA and E. coli (Panel A) or MRSA and B. subtilis (Panel B) when the bacteria strains are under the same antibiotic pressure.
As a proof of concept, the relative ratio of E. coli and MRSA or B. subtilis and MRSA was measured with and without MD-108 (FIGS. 11A and B). […] When supplied with 1.5 μg/ml MD-108 and 8 ng/ml trovafloxacin, the MRSA inhibition was achieved, leaving E. coli as the dominant species (89% of the bacteria population).

MRSA (ATCC 33592) = experiment: MIC determination and sensitization fold on MRSA; type: cell-based, methicillin-resistant Staphylococcus aureus; details: MRSA towards the antibiotic
M. smegmatis = experiment: MIC on mycobacteria; type: cell-based, Mycobacterium smegmatis; details: Mycolicibacterium smegmatis, read-out: MIC on mycobacteria
A. baumannii = experiment: MIC of rifampicin on A. baumannii with bacterial sensitizer Compound D; type: cell-based; details: Acinetobacter baumannii; antibiotic alone; read-out: minimum inhibitory concentration (MIC) on A. baumannii
Experimental: Bacteria were cultured with the antibiotic at various concentrations in the presence or absence of bacterial sensitizer, Compound D, for 24 hours at 37° C.

[7] = system: mcr-1 over-expressing E. coli strains; experiment: microbe, parasite or virus in culture; type: cell-based; details: for MIC: Escherichia coli
NIH3T3 cells = experiment: Cytotoxicity on mammalian cells (CCK-8), NIH3T3; type: cell-based; details: 3T3 cell line; 24 h
Procedure, shortened: (§1)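 Cells seeded a day ahead to ~80% confluency, exposed to varied compound concentrations for 24 h at 37° C, 5% CO2. CCK-8 added for a further 2 h and OD 450 nm read; viability expressed as percent of untreated control.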

HEK293 cells = experiment: Cytotoxicity on mammalian cells (CCK-8), HEK293; type: cell-based
Procedure, shortened: as §1

[8] = A. baumannii, checkerboard assay
[9] = E. coli towards the antibiotic, MD-124 5 μg/ml
[10] = E. coli, rifampicin, compound at 25 μM

N=C(N)c1ccc(OCCCCCOc2ccc(C(=N)N)cc2)cc1 [pentamidine, reference compound]
Sensitization fold (E. coli (ATCC 25922); E. coli, rifampicin, 20 μg/ml bacterial sensitizer): 4 fold | bacterial lysis by lysozyme in the presence of sensitizer (E. coli [1]): led to bacterial lysis | displacement of Dansyl-PMBN (fluorescent intensity) [2]: able to displace Dansyl-PMBN although not as much as MD-124

N=C(N)c1ccc(OCc2ccc(-c3ccc(C(=N)N)cc3)cc2)cc1 [DB2542]
CC50 [3]: 100 µM | MIC (E. coli (ATCC 25922); ATCC25922, 24 h, E. coli, compound alone, read-out: MIC): 50 µM

CO[C@@H]1[C@@H](OC(N)=O)[C@@H](O)[C@H](Oc2ccc3c(O)c(NC(=O)c4ccc(O)c(CC=C(C)C)c4)c(=O)oc3c2C)OC1(C)C [Novobiocin, reference compound]
Sensitization fold with 5 μg/ml MD-124 [4]: 32 fold | FIC index between MD-124 and antibiotic [4, 8]: 0.20 | Sensitization fold with 5 μg/ml MD-124 [5]: 32 fold | sensitization fold with 5.5 μg/ml DB2560 (B. subtilis): 4 fold | MIC of AB with 5 μg/ml MD-124 (K. pneumoniae (43816); K. pneumoniae): 6.4 µg/mL | Sensitization fold with 5 μg/ml MD-124 (K. pneumoniae (43816)): 32 fold | Sensitization fold (E. coli (ATCC 25922); [9]): 64 fold | MIC of AB with MD-124 (E. coli (ATCC 25922); E. coli): 1.6 µg/mL | MIC (E. coli (ATCC 25922); ATCC25922, 24 h, E. coli (wild type), antibiotic alone, read-out: MIC of AB only): 100 µg/mL | E. coli growth inhibition / bacterial load vs vehicle group (E. coli [6]): neither 4‰ (w/w) novobiocin nor 1.5‰ MD-124 themselves achieved significant E. coli growth inhibition

N[C@@H]1[C@H]2CN(c3nc4c(cc3F)c(=O)c(C(=O)O)cn4-c3ccc(F)cc3F)C[C@@H]12 [Trovafloxacin, reference compound]
MRSA share of the bacteria population (MRSA and E. coli): 78% | sensitization fold with 2.7 μg/ml DB2560 (MRSA (ATCC 33592)): 16 fold | Sensitization fold with 5 μg/ml MD-124 [4]: 2 fold | Sensitization fold with 5 μg/ml MD-124 [5]: 32 fold | sensitization fold with 5.5 μg/ml DB2560 (B. subtilis): 8 fold | Sensitization fold (E. coli (ATCC 25922); [9]): 32 fold | MIC of AB with MD-124 (E. coli (ATCC 25922); E. coli): 0.0015 µg/mL

N=C(N)c1ccc(OCc2cccc(COc3ccc(C(=N)N)cc3)c2)cc1 [DB2559, 1,3-Bis {(4-amidino)-phenoxymethyl}-benzene dihydrochloride]
CC50 [3]: 100 µM | Sensitization fold (B. subtilis; B. subtilis, compound at 6 μM): 4-fold at 6 μM | Sensitization fold (B. subtilis; B. subtilis, compound at 12 μM): 8-fold at 12 μM; | MIC (B. subtilis; Bacillus subtilis, 24 h, B. subtilis, compound alone, read-out: MIC): 25 µM | MIC (M. smegmatis): 12 µM | Sensitization fold (E. coli (ATCC 25922); [10]): 8-fold at 25 μM; | Sensitization fold (E. coli (ATCC 25922); E. coli, rifampicin, compound at 50 μM): 16-fold at 50 μM; | MIC (E. coli (ATCC 25922); ATCC25922, 24 h): 100 µM

CO[C@H]1/C=C/O[C@@]2(C)Oc3c(C)c(O)c4c(O)c(c(/C=N/N5CCN(C)CC5)c(O)c4c3C2=O)NC(=O)/C(C)=C\C=C\[C@H](C)[C@H](O)[C@@H](C)[C@@H](O)[C@@H](C)[C@H](OC(C)=O)[C@@H]1C [Rifampicin]
sensitization fold with 2.7 μg/ml DB2560 (MRSA (ATCC 33592)): 32 fold | Sensitization fold with 5 μg/ml MD-124 [4]: 128 fold | FIC index between MD-124 and antibiotic [4, 8]: 0.14 | MIC ([4]; Acinetobacter baumannii, ATCC17978, A. baumannii, checkerboard assay, read-out: MIC of rifampicin with 7 pg/ml of the sensitizer (MD-124)): 0.01 µg/mL | MIC ([5]; Escherichia coli, read-out: MIC of rifampicin with 10 μg/ml MD-124, NDM-1 expressing E. coli): 0.012 µg/mL | FIC index between MD-124 and antibiotic ([5]; NDM-1 expressing E. coli): 0.09 | Sensitization fold with 5 μg/ml MD-124 [5]: 516 fold | MIC (A. baumannii): 5 µg/mL | MIC ([7]; mcr-1 over-expression E. coli strain (MIC of polymyxin B 30 μg/ml), read-out: MIC of AB only): 5 µg/mL | MIC ([7]; read-out: MIC of AB with 5 μg/ml MD-124, mcr-1 over-expression E. coli strain (MIC of polymyxin B 30 μg/ml)): ≤ 0.2 µg/mL | MIC ([7]; strain mcr-1 A, read-out: MIC of Rif only): 5 µg/mL | MIC ([7]; strain mcr-1 B, read-out: MIC of Rif only): 5 µg/mL | FIC index between MD-124 and antibiotic ([7]; mcr-1 expressing E. coli): 0.37 | MIC of AB with 5 μg/ml MD-124 ([7]; mcr-1 over-expression E. coli strain (MIC of polymyxin B 30 μg/ml)): 0.16 µg/mL | Sensitization fold with 5 μg/ml MD-124 ([7]; mcr-1 over-expression E. coli strain towards the antibiotic): 32 fold | FIC index between DB2560 and antibiotic (B. subtilis; B. subtilis): 0.11 | MIC of antibiotic in the presence of 5.5 μg/ml of DB2560 (B. subtilis; B. subtilis): 0.037 µg/mL | sensitization fold with 5.5 μg/ml DB2560 (B. subtilis): 256 fold | FIC index between MD-124 and antibiotic (K. pneumoniae (43816); K. pneumoniae): 0.15 | MIC of AB with 5 μg/ml MD-124 (K. pneumoniae (43816); K. pneumoniae): 0.016 µg/mL | Sensitization fold with 5 μg/ml MD-124 (K. pneumoniae (43816)): 252 fold | Sensitization fold (E. coli (ATCC 25922); [9]): 516 fold | fractional inhibitory concentration (FIC) index between MD-124 and antibiotic (E. coli (ATCC 25922); E. coli, checkerboard assay): 0.09 | MIC (E. coli (ATCC 25922); ATCC25922, E. coli, with ~10 μg/ml MD-124, read-out: MIC of rifampicin (checkerboard assay)): 0.0006 µg/mL

Cc1cc(COc2ccc(NC(=N)N)cc2)cc(COc2ccc(NC(=N)N)cc2)c1 [MD-125, 1,1′-((((5-methyl-1,3-phenylene)bis(methylene))bis(oxy))bis(4,1-phenylene)) diguanidine di(trifluoroacetate)]
CC50 (NIH3T3 cells): 100 µM | CC50 [3]: 100 µM | Sensitization fold (E. coli (ATCC 25922); 10 μM compound, rifampicin as the antibiotic (Table 6)): 8 fold | Sensitization fold (E. coli (ATCC 25922); E. coli, rifampicin, compound at 10 μM): 8-fold at 10 μM | Sensitization fold (E. coli (ATCC 25922); [10]): 32-fold at 25 μM | MIC (E. coli (ATCC 25922); ATCC25922, 24 h): 100 µM | CC50 (HEK293 cells; HEK293 cell line, 24 h): 100 µM | IC50 (HEK293 cells; Homo sapiens, HEK293): 100 µM
